From patent publication US20250084039A1, “4-SUBSTITUTED AMINOISOQUINOLINE DERIVATIVES” (Purdue Research Foundation, priority 2016, published 2025) come the findings set out here.

In assay [1] the target is RIPK2 (Homo sapiens (Human), UniProt O43353). Nature of the assay: Reaction Biology HotSpot kinase assay. It counts as biochemical. Conditions: 500 nM compound; read-out: Percentage kinase inhibition RIPK2. In short, it runs like this:
(§1)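 Each compound was tested at 500 nM, with 33P incorporation from ATP (100 μM final, including [γ-33P]ATP) measured by P81 paper capture after a 2 h room-temperature reaction.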

In assay [2] the target is MEKK2 (Homo sapiens (Human), UniProt Q9Y2U5). Description: Reaction Biology HotSpot kinase assay. The class given is biochemical. Conditions: 500 nM compound; read-out: Percentage kinase inhibition MEKK2. In short, it runs like this:
as §1

Assay [3] deals with RIPK3 (Homo sapiens (Human), UniProt Q9Y572). Nature of the assay: Reaction Biology HotSpot kinase assay. It counts as biochemical. Conditions: 500 nM compound; read-out: Percentage kinase inhibition RIPK3. In short, it runs like this: as §1
The target in assay [4] is DAPK1 (Homo sapiens (Human), UniProt P53355). Nature of the assay: Reaction Biology HotSpot kinase assay. Conditions: 500 nM compound; read-out: Percentage kinase inhibition DAPK1. It counts as biochemical. In short, it runs like this: as §1
For assay [5], the target named is SRC (Homo sapiens (Human), UniProt P12931). Nature of the assay: DiscoverX Kd Elect binding. The procedure:
(§2) HCK is expressed more in human primary leukemic stem cells than in human normal hematopoietic stem cells. […] Other protein kinases such as SYK, BRAF, p38 (p38MAPK), PDGFRα/β, FGFR1, RET, FLT4, Tie2 have also been linked to leukemia. […] Thus, it was tested if HSN286 and analogs were also targeting kinases that play critical roles in AML. […] (Table 9). The inhibition of the Src-kinase family could be important clinically because these kinases are downstream of FLT3. In the event of FLT3 mutation, the inhibition of the Src-family kinases could still lead to proliferation inhibition.

Assay [6] addresses PLK1 (Homo sapiens (Human), UniProt P53350). Description: DiscoverX Kd Elect binding. The protocol: as §2
Assay [7] addresses KIT (Homo sapiens (Human), UniProt P10721). Description: DiscoverX Kd Elect binding. The protocol: as §2
The target of assay [8] is FYN (Homo sapiens (Human), UniProt P06241). Nature of the assay: DiscoverX Kd Elect binding. The protocol: as §2
In assay [9] the target is PIK3CA (Homo sapiens (Human), UniProt P42336). Description: DiscoverX Kd Elect binding. The protocol: as §2
The target of assay [10] is FAK (Homo sapiens (Human), UniProt Q05397). Description: DiscoverX Kd Elect binding. The protocol: as §2
The target of assay [11] is PIM1 (Homo sapiens (Human), UniProt P11309). Nature of the assay: DiscoverX Kd Elect binding. The procedure: as §2
Assay [12] deals with LYN (Homo sapiens (Human), UniProt P07948). Description: DiscoverX Kd Elect binding. The protocol:
as §2

Assay [13] concerns the target FGR (Homo sapiens (Human), UniProt P09769). Nature of the assay: DiscoverX Kd Elect binding. The procedure:
as §2

In assay [14] the target is AURKA (Homo sapiens (Human), UniProt O14965). Nature of the assay: DiscoverX Kd Elect binding. The procedure: as §2
Assay [15] deals with BLK (Homo sapiens (Human), UniProt P51451). Description: DiscoverX Kd Elect binding. The protocol:
as §2

The target in assay [16] is HCK (Homo sapiens (Human), UniProt P08631). Description: DiscoverX Kd Elect binding. The procedure:
as §2

Assay [17] relates to HCT116. Nature of the assay: Proliferation inhibition at single concentration (CellTiter-Blue). It counts as cell-based. The settings on record: 1 μM compound.
Assay [18] relates to MRC5. Description: Selectivity, proliferation IC50 (normal cell line). The class given is cell-based. The settings on record: Homo sapiens, read-out: IC50 MRC5 (normal lung fibroblast). The procedure: Cell lines were seeded into 96-well plates the afternoon prior to treatment. Approximately 18 hours later, compounds were diluted in dimethyl sulfoxide (DMSO) and added to cells. Plates were incubated for 72 hours and cells viability determined with CellTiter-Blue Cell Viability Assay (Promega, Madison, WI). Plates were read after 4 additional hours of incubation at 37° C. using plate reader (Bio-Tek, Winooski. VT). Data was analyzed and graphed using GraphPad Prism Software (Graphpad. La Jolla, CA).

The term Kd denotes the constant that tells how readily two partners part at equilibrium. Read a low Kd as tighter binding. The IC50 is the concentration needed to halve the response being measured.

LYN, sequence (P07948 whole entry): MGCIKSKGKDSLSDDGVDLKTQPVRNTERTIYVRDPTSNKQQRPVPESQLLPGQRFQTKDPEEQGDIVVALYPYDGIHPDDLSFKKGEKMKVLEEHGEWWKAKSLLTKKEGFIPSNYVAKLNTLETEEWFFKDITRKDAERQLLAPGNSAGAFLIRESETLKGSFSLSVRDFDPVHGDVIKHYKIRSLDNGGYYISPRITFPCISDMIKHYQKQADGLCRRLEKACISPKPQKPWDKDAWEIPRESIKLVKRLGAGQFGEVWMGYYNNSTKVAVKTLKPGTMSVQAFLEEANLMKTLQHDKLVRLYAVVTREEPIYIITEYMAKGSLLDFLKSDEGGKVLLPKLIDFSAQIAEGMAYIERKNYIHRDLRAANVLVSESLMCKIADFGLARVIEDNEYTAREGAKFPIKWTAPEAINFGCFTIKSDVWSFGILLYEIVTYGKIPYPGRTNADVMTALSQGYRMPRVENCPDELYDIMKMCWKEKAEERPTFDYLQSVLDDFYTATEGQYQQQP
PLK1, sequence (P53350 whole entry): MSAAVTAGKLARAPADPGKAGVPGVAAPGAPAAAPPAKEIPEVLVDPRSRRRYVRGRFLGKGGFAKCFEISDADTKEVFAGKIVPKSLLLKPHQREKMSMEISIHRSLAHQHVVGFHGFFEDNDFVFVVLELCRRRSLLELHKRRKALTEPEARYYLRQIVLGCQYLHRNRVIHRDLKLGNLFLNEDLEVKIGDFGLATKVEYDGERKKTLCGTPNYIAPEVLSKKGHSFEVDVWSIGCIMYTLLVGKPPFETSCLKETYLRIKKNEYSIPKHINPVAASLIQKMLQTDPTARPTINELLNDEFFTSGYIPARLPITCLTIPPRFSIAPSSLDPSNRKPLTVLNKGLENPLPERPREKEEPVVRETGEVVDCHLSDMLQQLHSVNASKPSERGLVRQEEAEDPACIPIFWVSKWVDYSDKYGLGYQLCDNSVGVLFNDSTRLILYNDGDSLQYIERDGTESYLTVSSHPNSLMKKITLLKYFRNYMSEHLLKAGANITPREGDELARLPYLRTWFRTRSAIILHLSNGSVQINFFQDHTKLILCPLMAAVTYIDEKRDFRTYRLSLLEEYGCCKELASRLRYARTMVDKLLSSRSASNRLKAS
HCK, sequence (P08631 whole entry): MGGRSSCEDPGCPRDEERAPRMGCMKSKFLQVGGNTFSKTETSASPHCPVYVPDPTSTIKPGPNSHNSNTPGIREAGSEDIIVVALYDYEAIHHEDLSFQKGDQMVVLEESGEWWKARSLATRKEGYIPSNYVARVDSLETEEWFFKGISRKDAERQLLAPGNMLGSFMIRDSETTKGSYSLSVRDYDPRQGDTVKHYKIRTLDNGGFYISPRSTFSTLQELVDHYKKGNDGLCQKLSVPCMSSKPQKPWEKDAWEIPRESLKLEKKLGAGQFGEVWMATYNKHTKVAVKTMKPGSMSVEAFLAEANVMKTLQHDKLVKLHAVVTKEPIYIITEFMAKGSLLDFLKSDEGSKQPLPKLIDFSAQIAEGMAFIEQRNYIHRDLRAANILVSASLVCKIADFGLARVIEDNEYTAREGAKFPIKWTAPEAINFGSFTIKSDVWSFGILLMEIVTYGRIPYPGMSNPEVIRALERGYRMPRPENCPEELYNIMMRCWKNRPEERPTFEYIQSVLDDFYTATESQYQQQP
FYN, sequence (P06241 whole entry): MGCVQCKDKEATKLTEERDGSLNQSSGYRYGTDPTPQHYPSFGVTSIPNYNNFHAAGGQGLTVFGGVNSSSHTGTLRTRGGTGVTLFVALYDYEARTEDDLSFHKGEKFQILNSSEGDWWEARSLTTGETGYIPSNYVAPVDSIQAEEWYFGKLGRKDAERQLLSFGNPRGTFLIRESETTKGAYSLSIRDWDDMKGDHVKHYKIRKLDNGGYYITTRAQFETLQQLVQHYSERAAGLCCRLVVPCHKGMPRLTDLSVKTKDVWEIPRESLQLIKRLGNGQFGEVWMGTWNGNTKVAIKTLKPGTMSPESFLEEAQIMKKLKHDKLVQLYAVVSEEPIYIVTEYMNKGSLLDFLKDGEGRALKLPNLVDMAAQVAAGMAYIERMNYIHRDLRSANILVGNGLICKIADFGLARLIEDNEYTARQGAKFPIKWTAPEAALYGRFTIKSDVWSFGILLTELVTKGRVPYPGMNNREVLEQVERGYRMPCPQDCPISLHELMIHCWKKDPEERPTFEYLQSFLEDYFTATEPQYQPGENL
RIPK2, sequence (O43353 whole entry): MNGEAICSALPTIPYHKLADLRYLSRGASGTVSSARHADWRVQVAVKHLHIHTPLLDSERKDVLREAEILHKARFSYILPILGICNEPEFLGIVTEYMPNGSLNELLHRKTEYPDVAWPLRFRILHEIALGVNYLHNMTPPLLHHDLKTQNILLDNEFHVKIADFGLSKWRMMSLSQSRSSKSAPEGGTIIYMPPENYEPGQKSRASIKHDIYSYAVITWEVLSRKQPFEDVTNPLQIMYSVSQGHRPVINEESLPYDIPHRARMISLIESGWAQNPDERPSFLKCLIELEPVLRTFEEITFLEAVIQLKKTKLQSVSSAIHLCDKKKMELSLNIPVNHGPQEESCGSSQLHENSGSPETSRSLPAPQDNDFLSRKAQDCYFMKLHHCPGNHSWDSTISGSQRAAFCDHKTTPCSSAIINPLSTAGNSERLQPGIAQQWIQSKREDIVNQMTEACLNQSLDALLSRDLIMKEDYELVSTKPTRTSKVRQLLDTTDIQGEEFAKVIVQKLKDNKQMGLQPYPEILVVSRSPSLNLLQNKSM
BLK, sequence (P51451 whole entry): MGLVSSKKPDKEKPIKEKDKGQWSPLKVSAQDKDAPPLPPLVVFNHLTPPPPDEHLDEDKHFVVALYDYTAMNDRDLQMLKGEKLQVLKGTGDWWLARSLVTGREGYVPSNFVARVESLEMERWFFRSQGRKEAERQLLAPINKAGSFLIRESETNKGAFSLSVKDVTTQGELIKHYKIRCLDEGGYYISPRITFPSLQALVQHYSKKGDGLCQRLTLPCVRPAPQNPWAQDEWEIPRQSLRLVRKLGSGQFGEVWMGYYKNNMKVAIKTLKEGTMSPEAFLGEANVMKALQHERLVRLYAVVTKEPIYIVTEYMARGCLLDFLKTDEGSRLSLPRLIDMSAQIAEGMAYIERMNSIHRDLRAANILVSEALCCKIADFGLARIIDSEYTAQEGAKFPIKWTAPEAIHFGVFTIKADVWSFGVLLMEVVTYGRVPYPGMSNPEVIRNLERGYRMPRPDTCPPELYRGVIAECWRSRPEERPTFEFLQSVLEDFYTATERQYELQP
MEKK2, sequence (Q9Y2U5 whole entry): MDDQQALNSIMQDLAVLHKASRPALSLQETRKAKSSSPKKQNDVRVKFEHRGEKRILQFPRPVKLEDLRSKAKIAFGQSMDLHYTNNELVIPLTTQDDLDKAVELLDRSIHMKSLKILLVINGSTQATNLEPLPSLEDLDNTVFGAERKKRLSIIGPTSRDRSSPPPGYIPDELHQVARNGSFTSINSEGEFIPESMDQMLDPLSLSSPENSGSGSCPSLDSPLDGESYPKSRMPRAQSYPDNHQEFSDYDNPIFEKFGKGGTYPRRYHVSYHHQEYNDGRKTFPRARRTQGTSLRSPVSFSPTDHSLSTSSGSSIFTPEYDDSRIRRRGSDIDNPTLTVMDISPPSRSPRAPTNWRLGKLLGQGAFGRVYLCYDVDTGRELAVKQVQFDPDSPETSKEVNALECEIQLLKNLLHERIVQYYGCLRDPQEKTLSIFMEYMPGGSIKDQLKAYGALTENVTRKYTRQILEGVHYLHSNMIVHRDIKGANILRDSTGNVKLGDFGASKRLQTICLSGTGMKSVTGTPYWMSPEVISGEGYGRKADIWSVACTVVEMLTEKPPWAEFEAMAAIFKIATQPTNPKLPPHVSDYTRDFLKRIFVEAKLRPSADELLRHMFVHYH
AURKA, sequence (O14965 whole entry): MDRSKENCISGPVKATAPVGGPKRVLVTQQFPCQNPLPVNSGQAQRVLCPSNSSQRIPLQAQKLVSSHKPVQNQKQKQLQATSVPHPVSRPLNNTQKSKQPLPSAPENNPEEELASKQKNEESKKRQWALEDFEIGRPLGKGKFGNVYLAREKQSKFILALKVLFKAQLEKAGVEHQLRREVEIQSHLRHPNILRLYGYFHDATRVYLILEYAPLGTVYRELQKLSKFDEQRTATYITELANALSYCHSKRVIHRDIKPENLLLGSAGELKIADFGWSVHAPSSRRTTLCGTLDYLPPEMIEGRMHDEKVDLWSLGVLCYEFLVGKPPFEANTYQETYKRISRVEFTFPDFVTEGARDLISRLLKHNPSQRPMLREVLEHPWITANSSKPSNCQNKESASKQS
RIPK3, sequence (Q9Y572 whole entry): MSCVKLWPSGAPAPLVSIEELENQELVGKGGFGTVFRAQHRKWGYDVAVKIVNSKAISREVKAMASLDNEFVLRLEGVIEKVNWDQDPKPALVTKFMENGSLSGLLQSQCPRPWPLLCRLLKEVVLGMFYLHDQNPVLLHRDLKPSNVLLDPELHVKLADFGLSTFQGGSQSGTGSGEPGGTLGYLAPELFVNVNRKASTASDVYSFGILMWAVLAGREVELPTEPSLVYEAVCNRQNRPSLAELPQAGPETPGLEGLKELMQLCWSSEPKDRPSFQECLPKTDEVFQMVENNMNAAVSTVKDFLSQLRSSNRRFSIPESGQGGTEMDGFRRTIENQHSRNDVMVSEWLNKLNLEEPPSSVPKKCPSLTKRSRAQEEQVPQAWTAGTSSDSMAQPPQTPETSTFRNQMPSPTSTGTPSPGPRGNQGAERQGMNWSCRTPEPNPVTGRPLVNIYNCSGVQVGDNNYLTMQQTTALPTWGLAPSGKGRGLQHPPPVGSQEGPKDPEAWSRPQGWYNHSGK

Consider `Cc1ccc(C(=O)Nc2ccc(CN3CCN(C)CC3)c(C(F)(F)F)c2)cc1C#Cc1c(N)ncc2ccc(Cl)cc12` [HSN286], for which the inhibition at 0.5 µM in assay [1] was found to be 25%; in assay [2] it was 52%; in assay [3], 96%; in assay [4] it was 9%. Also, the Kd in assay [5] is 16 nM; in [6] it was above 30000 nM; in [7] it was 42 nM; in [8], 28 nM; in assay [9], 26000 nM; in assay [10], 5100 nM. The dissociation constant (Kd) in assay [11] was 11000 nM; in assay [12], 11 nM; in [13], 7 nM; in assay [14], above 30000 nM; in assay [15], 3.9 nM; in assay [16] it was 3.6 nM. Moreover, the inhibition at 1 µM in assay [17] (Homo sapiens, HCT-116, read-out: Percent inhibition of proliferation HCT116) turned out to be 100%. The IC50 in [18] came out at 1270 nM.

Regarding `Cc1ccc(C(=O)Nc2ccc(CN3CCN(C)CC3)c(C(F)(F)F)c2)cc1C#Cc1cc(N)nc2ccccc12` [HSN285], the inhibition at 0.5 µM was 0% in [1], 0% in [2], 0% in assay [3] and 14% in [4].

Turning to `CN(C)CC(O)CNC(=O)c1ccc(C#Cc2c(N)ncc3ccc(Cl)cc23)cc1` (centres unmarked) [HSM1702], the “Percent inhibition of proliferation HCT116” value in assay [17] stood at 33%.

As to `Cc1ccc(C(=O)Nc2ccc(CN3CCN(C)CC3)c(C(F)(F)F)c2)cc1C#Cc1cnc(N)c2ncccc12` [HSN356, 3-((8-amino-1,7-naphthyridin-5-yl)ethynyl)-4-methyl-N-(4-((4-methylpiperazin-1-yl)methyl)-3-(trifluoromethyl)phenyl)benzamide], the Kd in [5] was 15 nM; in assay [6], 9600 nM; in assay [7], 7.2 nM; in assay [8], 38 nM; in assay [9], above 30000 nM; in [10], 4700 nM. Besides, the Kd worked out at 19000 nM in [11]; 5.4 nM in assay [12]; 7.9 nM in assay [13]; 5100 nM in assay [14]; 1.2 nM in assay [15]; 2.5 nM in [16].
